Laboratory results published in ChEMBL document CHEMBL1201862, “PubChem BioAssay data set” (2004).
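Where inhibition never reached the appropriate level, the endpoint shown equals the highest concentration tested. Otherwise, values were interpolated linearly from a five-concentration, 48-hour dose response in 96-well plates. Abbreviation: GI50, concentration required for 50% inhibition of growth.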 Calls of active or inactive are those of the source. Cut-off read from the data, not from the text of the source: active = GI50 up to about 1.1 µM and inactive = higher.

Assays:
Experiment in all cases: NCI tumour cell line growth inhibition, 48 h
LOX IMVI = system: LOX IMVI
NCI/ADR-RES = system: NCI/ADR-RES
MDA-MB-231 = system: MDA-MB-231
HCC 2998 = system: HCC 2998
K562 = system: K562
786-0 = system: 786-0
SNB-19 = system: SNB-19
CAKI-1 = system: CAKI-1
SK-MEL-28 = system: SK-MEL-28
RXF 393 = system: RXF 393
HCT-116 = system: HCT-116
ACHN = system: ACHN
PC-3 = system: PC-3
SK-MEL-5 = system: SK-MEL-5
HOP-92 = system: HOP-92
MOLT-4 = system: MOLT-4
SW-620 = system: SW-620
MCF7 = system: MCF7
OVCAR-4 = system: OVCAR-4
SK-MEL-2 = system: SK-MEL-2
OVCAR-5 = system: OVCAR-5
HCT-15 = system: HCT-15
U-251 = system: U-251
DU-145 = system: DU-145
OVCAR-8 = system: OVCAR-8
SR = system: SR
A498 = system: A498
HOP-62 = system: HOP-62
BT-549 = system: BT-549
EKVX = system: EKVX
SN12C = system: SN12C
IGROV-1 = system: IGROV-1
UACC-62 = system: UACC-62
UO-31 = system: UO-31
TK-10 = system: TK-10
UACC-257 = system: UACC-257
KM12 = system: KM12
NCI-H460 = system: NCI-H460
NCI-H226 = system: NCI-H226
A549 = system: A549
SK-OV-3 = system: SK-OV-3
COLO 205 = system: COLO 205
Malme-3M = system: Malme-3M
M14 = system: M14
SF-295 = system: SF-295
NCI-H23 = system: NCI-H23
NCI-H522 = system: NCI-H522
T47D = system: T47D
CCRF-CEM = system: CCRF-CEM
HT-29 = system: HT-29
HL-60 = system: HL-60
MDA-MB-435 = system: MDA-MB-435
SF-268 = system: SF-268
Hs-578T = system: Hs-578T
RPMI-8226 = system: RPMI-8226
MDA-N = system: MDA-N
SF-539 = system: SF-539
OVCAR-3 = system: OVCAR-3

For COc1cc(/C=C/c2nc(NC(=S)Nc3ccccc3)nnc2C)cc(OC)c1OC, the GI50 (LOX IMVI) was 37.2 µM (inactive), the GI50 (NCI/ADR-RES) was 28.4 µM (inactive) and the GI50 (MDA-MB-231) was 33 µM (inactive). For the same molecule, the GI50 (HCC 2998) was 12.6 µM (inactive), the GI50 (K562) was 29.9 µM (inactive) and the GI50 (786-0) was 28.3 µM (inactive). The GI50 (SNB-19) was 32.5 µM (inactive), the GI50 (CAKI-1) was 29.1 µM (inactive) and the GI50 (SK-MEL-28) was > 100 µM (inactive). For the same molecule, the GI50 (RXF 393) was 23.6 µM (inactive), the GI50 (HCT-116) was 24.7 µM (inactive) and the GI50 (ACHN) was 18.2 µM (inactive). The GI50 (PC-3) was 14.3 µM (inactive), the GI50 (SK-MEL-5) was 14.7 µM (inactive) and the GI50 (HOP-92) was 53.7 µM (inactive). For the same molecule, the GI50 (MOLT-4) was 25 µM (inactive), the GI50 (SW-620) was 38.1 µM (inactive) and the GI50 (MCF7) was 13.9 µM (inactive). For the same molecule, the GI50 (OVCAR-4) was 18.7 µM (inactive), the GI50 (SK-MEL-2) was 14.5 µM (inactive) and the GI50 (OVCAR-5) was 31.6 µM (inactive). For the same molecule, the GI50 (HCT-15) was 11.2 µM, the GI50 (U-251) was 31 µM (inactive) and the GI50 (DU-145) was 34 µM (inactive). The GI50 (OVCAR-8) was 20.8 µM (inactive), the GI50 (SR) was 12.4 µM (inactive) and the GI50 (A498) was 27.8 µM (inactive). The GI50 (HOP-62) was 35.2 µM (inactive), the GI50 (BT-549) was 25.2 µM (inactive) and the GI50 (EKVX) was 22.4 µM (inactive). For the same molecule, the GI50 (SN12C) was 39.1 µM (inactive), the GI50 (IGROV-1) was 27.2 µM (inactive) and the GI50 (UACC-62) was 14.1 µM (inactive). For the same molecule, the GI50 (UO-31) was 4.36 µM (inactive), the GI50 (TK-10) was 41.4 µM (inactive) and the GI50 (UACC-257) was 30.3 µM (inactive). For the same molecule, the GI50 (KM12) was 14.5 µM (inactive), the GI50 (NCI-H460) was 15.7 µM (inactive) and the GI50 (NCI-H226) was 23.7 µM (inactive). The GI50 (A549) was 23.8 µM (inactive), the GI50 (SK-OV-3) was 29.6 µM (inactive) and the GI50 (COLO 205) was 15.5 µM (inactive). For the same molecule, the GI50 (Malme-3M) was 23.9 µM (inactive), the GI50 (M14) was 21.4 µM (inactive) and the GI50 (SF-295) was 50.1 µM (inactive). The GI50 (NCI-H23) was 17.3 µM (inactive), the GI50 (NCI-H522) was 11.1 µM (inactive) and the GI50 (T47D) was 19.7 µM (inactive). The GI50 (CCRF-CEM) was 13.5 µM (inactive), the GI50 (HT-29) was 14.7 µM (inactive) and the GI50 (HL-60) was 8.3 µM (inactive). For the same molecule, the GI50 (MDA-MB-435) was 38.4 µM (inactive), the GI50 (SF-268) was 27.4 µM (inactive) and the GI50 (Hs-578T) was 17.6 µM (inactive). For the same molecule, the GI50 (RPMI-8226) was 22.7 µM (inactive) and the GI50 (MDA-N) was 48.2 µM (inactive).

In the case of CC(C)=CC(=O)c1[nH]c2ccccc2c1CC(=O)NCCc1cn(C(c2ccccc2)(c2ccccc2)c2ccccc2)cn1, the GI50 (LOX IMVI) is reported as 2.02 µM (inactive), the GI50 (SF-539) is reported as 2.69 µM (inactive) and the GI50 (NCI/ADR-RES) is reported as 3.17 µM (inactive). For the same molecule, the GI50 (MDA-MB-231) was 2.16 µM (inactive), the GI50 (HCC 2998) was 1.97 µM (inactive) and the GI50 (K562) was 2.99 µM (inactive). The GI50 (786-0) was 3.82 µM (inactive), the GI50 (SNB-19) was 6.05 µM (inactive) and the GI50 (CAKI-1) was 7.87 µM (inactive). For the same molecule, the GI50 (SK-MEL-28) was 3.4 µM (inactive), the GI50 (RXF 393) was 2.81 µM (inactive) and the GI50 (HCT-116) was 2.77 µM (inactive). The GI50 (ACHN) was 3.54 µM (inactive), the GI50 (PC-3) was 2.46 µM (inactive) and the GI50 (SK-MEL-5) was 2.08 µM (inactive). For the same molecule, the GI50 (HOP-92) was 2.49 µM (inactive), the GI50 (MOLT-4) was 2.26 µM (inactive) and the GI50 (SW-620) was 3.74 µM (inactive). The GI50 (MCF7) was 2.99 µM (inactive), the GI50 (OVCAR-4) was 3.86 µM (inactive) and the GI50 (SK-MEL-2) was 1.81 µM (inactive). For the same molecule, the GI50 (OVCAR-5) was 3.39 µM (inactive), the GI50 (HCT-15) was 3.89 µM and the GI50 (U-251) was 2.82 µM (inactive). The GI50 (DU-145) was 5.13 µM (inactive), the GI50 (OVCAR-8) was 3.96 µM (inactive) and the GI50 (SR) was 0.979 µM (active). For the same molecule, the GI50 (OVCAR-3) was 3.84 µM (inactive), the GI50 (A498) was 4.22 µM (inactive) and the GI50 (HOP-62) was 11.9 µM (inactive). For the same molecule, the GI50 (BT-549) was 3.25 µM (inactive), the GI50 (EKVX) was 3.48 µM (inactive) and the GI50 (SN12C) was 2.81 µM (inactive). The GI50 (IGROV-1) was 3.84 µM (inactive), the GI50 (UACC-62) was 1.97 µM (inactive) and the GI50 (UO-31) was 3.55 µM (inactive). For the same molecule, the GI50 (TK-10) was 6.76 µM (inactive), the GI50 (UACC-257) was 3.67 µM (inactive) and the GI50 (KM12) was 3.29 µM (inactive). The GI50 (NCI-H460) was 2.97 µM (inactive), the GI50 (NCI-H226) was 2.94 µM (inactive) and the GI50 (A549) was 2.87 µM (inactive). For the same molecule, the GI50 (SK-OV-3) was 13.5 µM (inactive), the GI50 (COLO 205) was 1.81 µM (inactive) and the GI50 (Malme-3M) was 5.78 µM (inactive). For the same molecule, the GI50 (M14) was 2.02 µM (inactive), the GI50 (SF-295) was 4.57 µM (inactive) and the GI50 (NCI-H23) was 4.69 µM (inactive). The GI50 (NCI-H522) was 6.71 µM (inactive), the GI50 (T47D) was 3.77 µM (inactive) and the GI50 (CCRF-CEM) was 2.48 µM (inactive). The GI50 (HT-29) was 3.32 µM (inactive), the GI50 (HL-60) was 1.26 µM (inactive) and the GI50 (MDA-MB-435) was 2.06 µM (inactive). The GI50 (SF-268) was 16.8 µM (inactive), the GI50 (Hs-578T) was 16.8 µM (inactive) and the GI50 (RPMI-8226) was 1.98 µM (inactive). For the same molecule, the GI50 (MDA-N) was 2.91 µM (inactive).

In the case of Clc1nc(-[n+]2ccc(-c3ccncc3)cc2)nc(Nc2ccccc2)c1Cl, the GI50 (LOX IMVI) is reported as 50.4 µM (inactive), the GI50 (SF-539) is reported as > 100 µM (inactive) and the GI50 (NCI/ADR-RES) is reported as > 100 µM (inactive). For the same molecule, the GI50 (MDA-MB-231) was > 100 µM (inactive), the GI50 (HCC 2998) was > 100 µM (inactive) and the GI50 (K562) was 52.1 µM (inactive). The GI50 (786-0) was 83.8 µM (inactive), the GI50 (SNB-19) was > 100 µM (inactive) and the GI50 (SK-MEL-28) was > 100 µM (inactive). The GI50 (RXF 393) was > 100 µM (inactive), the GI50 (HCT-116) was > 100 µM (inactive) and the GI50 (ACHN) was > 100 µM (inactive). For the same molecule, the GI50 (PC-3) was > 100 µM (inactive), the GI50 (SK-MEL-5) was > 100 µM (inactive) and the GI50 (HOP-92) was > 100 µM (inactive). For the same molecule, the GI50 (MOLT-4) was 49.1 µM (inactive), the GI50 (SW-620) was 66.8 µM (inactive) and the GI50 (MCF7) was 33.1 µM (inactive). The GI50 (OVCAR-4) was > 100 µM (inactive), the GI50 (SK-MEL-2) was > 100 µM (inactive) and the GI50 (OVCAR-5) was > 100 µM (inactive). For the same molecule, the GI50 (HCT-15) was > 100 µM, the GI50 (U-251) was 70.5 µM (inactive) and the GI50 (DU-145) was > 100 µM (inactive). For the same molecule, the GI50 (SR) was 26.2 µM (inactive), the GI50 (OVCAR-3) was > 100 µM (inactive) and the GI50 (A498) was > 100 µM (inactive). The GI50 (HOP-62) was > 100 µM (inactive), the GI50 (BT-549) was > 100 µM (inactive) and the GI50 (EKVX) was 83.8 µM (inactive). The GI50 (SN12C) was > 100 µM (inactive), the GI50 (IGROV-1) was 59.7 µM (inactive) and the GI50 (UACC-62) was > 100 µM (inactive). The GI50 (UO-31) was > 100 µM (inactive), the GI50 (TK-10) was > 100 µM (inactive) and the GI50 (UACC-257) was > 100 µM (inactive). The GI50 (KM12) was > 100 µM (inactive), the GI50 (NCI-H460) was > 100 µM (inactive) and the GI50 (NCI-H226) was > 100 µM (inactive). For the same molecule, the GI50 (A549) was > 100 µM (inactive), the GI50 (SK-OV-3) was > 100 µM (inactive) and the GI50 (COLO 205) was > 100 µM (inactive). For the same molecule, the GI50 (Malme-3M) was > 100 µM (inactive), the GI50 (M14) was > 100 µM (inactive) and the GI50 (NCI-H23) was > 100 µM (inactive). For the same molecule, the GI50 (T47D) was 43.7 µM (inactive), the GI50 (CCRF-CEM) was 27.9 µM (inactive) and the GI50 (HT-29) was > 100 µM (inactive). For the same molecule, the GI50 (HL-60) was 35.3 µM (inactive), the GI50 (MDA-MB-435) was > 100 µM (inactive) and the GI50 (SF-268) was > 100 µM (inactive). For the same molecule, the GI50 (Hs-578T) was > 100 µM (inactive), the GI50 (RPMI-8226) was 57.9 µM (inactive) and the GI50 (MDA-N) was > 100 µM (inactive).
